We go through one compound from ChEMBL document CHEMBL1158771, “Glaciapyrroles A, B, and C, pyrrolosesquiterpenes from a Streptomyces sp. isolated from an Alaskan marine sediment” (J Nat Prod, 2005).

SMILES strings stand for the structures.

As a reminder, the IC50 is the concentration that gives 50% inhibition.

One assay has as its system HT-29. In words: Cytotoxicity against human HT-29 cells assessed as reduction of resazurin after 48 hrs by fluorimetry. To be noted: HT-29, 48 h. Format: functional, cell-based.
The test system of another assay is B16-F10. In words: Cytotoxicity against mouse B16F10 cells assessed as reduction of resazurin after 48 hrs by fluorimetry. To be noted: B16-F10, 48 h. The assay is classed as functional, cell-based. Background: The colour change of resazurin is a common sign of viable cells or microbes.

In the case of `CC(=C/C(=O)c1ccc[nH]1)/C=C/[C@H](O)[C@@]1(C)CC[C@H](C(C)(C)O)O1` [GLYCIAPYRROLE A], the IC50 in the assay on HT-29 and in the assay on B16-F10 was 180 µM in each case.
